{"source": "PubChem BioAssay (NCI)", "experiment_in_all_cases": "NCI tumour cell line growth inhibition, 48 h", "key": {"[1]": {"tested_on": "ACHN renal"}, "[2]": {"tested_on": "CAKI-1 renal"}, "[3]": {"tested_on": "CCRF-CEM leukemia"}, "[4]": {"tested_on": "DU-145 prostate"}, "[5]": {"tested_on": "HCT-15 colon"}, "[6]": {"tested_on": "HL-60(TB) leukemia"}, "[7]": {"tested_on": "NCI/ADR-RES ovarian"}, "[8]": {"tested_on": "OVCAR-5 ovarian"}, "[9]": {"tested_on": "RPMI-8226 leukemia"}, "[10]": {"tested_on": "SK-MEL-28 melanoma"}, "[11]": {"tested_on": "SK-MEL-5 melanoma"}, "[12]": {"tested_on": "SK-OV-3 ovarian"}, "[13]": {"tested_on": "UACC-257 melanoma"}, "[14]": {"tested_on": "UACC-62 melanoma"}, "[15]": {"tested_on": "786-0 renal"}, "[16]": {"tested_on": "A549 NSCLC"}, "[17]": {"tested_on": "BT-549 breast"}, "[18]": {"tested_on": "COLO 205 colon"}, "[19]": {"tested_on": "EKVX NSCLC"}, "[20]": {"tested_on": "HCT-116 colon"}, "[21]": {"tested_on": "HOP-62 NSCLC"}, "[22]": {"tested_on": "HOP-92 NSCLC"}, "[23]": {"tested_on": "HS 578T breast"}, "[24]": {"tested_on": "HT29 colon"}, "[25]": {"tested_on": "IGROV1 ovarian"}, "[26]": {"tested_on": "K-562 leukemia"}, "[27]": {"tested_on": "KM12 colon"}, "[28]": {"tested_on": "LOX IMVI melanoma"}, "[29]": {"tested_on": "M14 melanoma"}, "[30]": {"tested_on": "MALME-3M melanoma"}, "[31]": {"tested_on": "MCF7 breast"}, "[32]": {"tested_on": "MDA-MB-231 breast"}, "[33]": {"tested_on": "MDA-MB-435"}, "[34]": {"tested_on": "MOLT-4 leukemia"}, "[35]": {"tested_on": "NCI-H226 lung"}, "[36]": {"tested_on": "NCI-H23 lung"}, "[37]": {"tested_on": "NCI-H460 lung"}, "[38]": {"tested_on": "NCI-H522 lung"}, "[39]": {"tested_on": "OVCAR-3 ovarian"}, "[40]": {"tested_on": "OVCAR-4 ovarian"}, "[41]": {"tested_on": "OVCAR-8 ovarian"}, "[42]": {"tested_on": "PC-3 prostate"}, "[43]": {"tested_on": "SF-268 CNS"}, "[44]": {"tested_on": "SF-295 CNS"}, "[45]": {"tested_on": "SF-539 CNS"}, "[46]": {"tested_on": "SK-MEL-2 melanoma"}, "[47]": {"tested_on": "SN12C renal"}, "[48]": {"tested_on": "SNB-19 CNS"}, "[49]": {"tested_on": "SNB-75 CNS"}, "[50]": {"tested_on": "SR leukemia"}, "[51]": {"tested_on": "SW-620 colon"}, "[52]": {"tested_on": "TK-10 renal"}, "[53]": {"tested_on": "U251 CNS"}, "[54]": {"tested_on": "UO-31 renal"}}, "note": "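Briefly, cells in 96-well plates were exposed to five compound concentrations for 48 h, and endpoints were estimated by linear interpolation. At the GI50, growth is halved. TGI marks complete inhibition of growth.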", "data": [{"smiles": "Cc1c2c(cc[n+]1Cc1ccccc1)c1ccc(OCc3ccccc3)cc1n2Cc1ccccc1", "values": [{"measurement": "GI50", "setting": "[1]", "result": 1.51, "unit": "µM"}, {"measurement": "TGI", "setting": "[1]", "result": 2.84, "unit": "µM"}, {"measurement": "GI50", "setting": "[2]", "result": 1.67, "unit": "µM"}, {"measurement": "TGI", "setting": "[2]", "result": 3.67, "unit": "µM"}, {"measurement": "GI50", "setting": "[3]", "result": 0.336, "unit": "µM"}, {"measurement": "TGI", "setting": "[3]", "result": 2.09, "unit": "µM"}, {"measurement": "GI50", "setting": "[4]", "result": 0.499, "unit": "µM"}, {"measurement": "TGI", "setting": "[4]", "result": 1.74, "unit": "µM"}, {"measurement": "GI50", "setting": "[5]", "result": 2.01, "unit": "µM"}, {"measurement": "TGI", "setting": "[5]", "result": 4.64, "unit": "µM"}, {"measurement": "GI50", "setting": "[6]", "result": 0.202, "unit": "µM"}, {"measurement": "TGI", "setting": "[6]", "result": 0.47, "unit": "µM"}, {"measurement": "GI50", "setting": "[7]", "result": 5.78, "unit": "µM"}, {"measurement": "TGI", "setting": "[7]", "result": "> 69.3", "unit": "µM"}, {"measurement": "GI50", "setting": "[8]", "result": 0.984, "unit": "µM"}, {"measurement": "TGI", "setting": "[8]", "result": 2.21, "unit": "µM"}, {"measurement": "GI50", "setting": "[9]", "result": 0.231, "unit": "µM"}, {"measurement": "TGI", "setting": "[9]", "result": 1.95, "unit": "µM"}, {"measurement": "GI50", "setting": "[10]", "result": 0.515, "unit": "µM"}, {"measurement": "TGI", "setting": "[10]", "result": 1.86, "unit": "µM"}, {"measurement": "GI50", "setting": "[11]", "result": 0.182, "unit": "µM"}, {"measurement": "TGI", "setting": "[11]", "result": 0.366, "unit": "µM"}, {"measurement": "GI50", "setting": "[12]", "result": 1.11, "unit": "µM"}, {"measurement": "TGI", "setting": "[12]", "result": 2.36, "unit": "µM"}, {"measurement": "GI50", "setting": "[13]", "result": 0.245, "unit": "µM"}, {"measurement": "TGI", "setting": "[13]", "result": 0.789, "unit": "µM"}, {"measurement": "GI50", "setting": "[14]", "result": 0.286, "unit": "µM"}, {"measurement": "TGI", "setting": "[14]", "result": 1.21, "unit": "µM"}]}, {"smiles": "COc1cccc(/C=C2\\CCCc3ccccc3C2=O)c1", "values": [{"measurement": "TGI", "setting": "[15]", "result": 27.4, "unit": "µM"}, {"measurement": "TGI", "setting": "[16]", "result": "> 100", "unit": "µM"}, {"measurement": "TGI", "setting": "[1]", "result": "> 100", "unit": "µM"}, {"measurement": "TGI", "setting": "[17]", "result": 39.3, "unit": "µM"}, {"measurement": "TGI", "setting": "[2]", "result": "> 100", "unit": "µM"}, {"measurement": "TGI", "setting": "[3]", "result": 35.3, "unit": "µM"}, {"measurement": "TGI", "setting": "[18]", "result": 35.6, "unit": "µM"}, {"measurement": "TGI", "setting": "[4]", "result": 60, "unit": "µM"}, {"measurement": "TGI", "setting": "[19]", "result": 50.2, "unit": "µM"}, {"measurement": "TGI", "setting": "[20]", "result": 27.9, "unit": "µM"}, {"measurement": "TGI", "setting": "[5]", "result": 26, "unit": "µM"}, {"measurement": "TGI", "setting": "[6]", "result": 35, "unit": "µM"}, {"measurement": "TGI", "setting": "[21]", "result": 31, "unit": "µM"}, {"measurement": "TGI", "setting": "[22]", "result": 43.2, "unit": "µM"}, {"measurement": "TGI", "setting": "[23]", "result": 41.4, "unit": "µM"}, {"measurement": "TGI", "setting": "[24]", "result": 52.3, "unit": "µM"}, {"measurement": "TGI", "setting": "[25]", "result": 46.3, "unit": "µM"}, {"measurement": "TGI", "setting": "[26]", "result": 48.2, "unit": "µM"}, {"measurement": "TGI", "setting": "[27]", "result": 38.8, "unit": "µM"}, {"measurement": "TGI", "setting": "[28]", "result": 38.9, "unit": "µM"}, {"measurement": "TGI", "setting": "[29]", "result": 25.6, "unit": "µM"}, {"measurement": "TGI", "setting": "[30]", "result": 43, "unit": "µM"}, {"measurement": "TGI", "setting": "[31]", "result": 51.6, "unit": "µM"}, {"measurement": "TGI", "setting": "[32]", "result": 32.5, "unit": "µM"}, {"measurement": "TGI", "setting": "[33]", "result": 30.1, "unit": "µM"}, {"measurement": "TGI", "setting": "[34]", "result": "> 100", "unit": "µM"}, {"measurement": "TGI", "setting": "[35]", "result": 49.3, "unit": "µM"}, {"measurement": "TGI", "setting": "[36]", "result": 32.6, "unit": "µM"}, {"measurement": "TGI", "setting": "[37]", "result": 34.2, "unit": "µM"}, {"measurement": "TGI", "setting": "[38]", "result": 40.3, "unit": "µM"}, {"measurement": "TGI", "setting": "[7]", "result": 53.3, "unit": "µM"}, {"measurement": "TGI", "setting": "[39]", "result": 34, "unit": "µM"}, {"measurement": "TGI", "setting": "[40]", "result": 28.5, "unit": "µM"}, {"measurement": "TGI", "setting": "[8]", "result": 38, "unit": "µM"}, {"measurement": "TGI", "setting": "[41]", "result": 51.5, "unit": "µM"}, {"measurement": "TGI", "setting": "[42]", "result": 38.6, "unit": "µM"}, {"measurement": "TGI", "setting": "[9]", "result": 64.1, "unit": "µM"}, {"measurement": "TGI", "setting": "[43]", "result": 23, "unit": "µM"}, {"measurement": "TGI", "setting": "[44]", "result": 30.7, "unit": "µM"}, {"measurement": "TGI", "setting": "[45]", "result": 32, "unit": "µM"}, {"measurement": "TGI", "setting": "[46]", "result": 27.4, "unit": "µM"}, {"measurement": "TGI", "setting": "[10]", "result": 41.1, "unit": "µM"}, {"measurement": "TGI", "setting": "[12]", "result": 79.3, "unit": "µM"}, {"measurement": "TGI", "setting": "[47]", "result": 33, "unit": "µM"}, {"measurement": "TGI", "setting": "[48]", "result": 26.8, "unit": "µM"}, {"measurement": "TGI", "setting": "[49]", "result": "> 100", "unit": "µM"}, {"measurement": "TGI", "setting": "[50]", "result": 31.3, "unit": "µM"}, {"measurement": "TGI", "setting": "[51]", "result": 35.5, "unit": "µM"}, {"measurement": "TGI", "setting": "[52]", "result": 82.6, "unit": "µM"}, {"measurement": "TGI", "setting": "[53]", "result": 29.3, "unit": "µM"}, {"measurement": "TGI", "setting": "[13]", "result": 33.2, "unit": "µM"}, {"measurement": "TGI", "setting": "[14]", "result": 25.8, "unit": "µM"}, {"measurement": "TGI", "setting": "[54]", "result": 29.7, "unit": "µM"}]}]}
